We go through eight compounds from patent US10752589B2, “Trigonelline based compounds” (SPHAERA PHARMA PVT. LTD., priority 2016, dated 2020).

Values after ≈ are worked out from the molar mass of the structure shown. “Also recorded” adds a separate entry of the source. Where two headings read alike, the source gives them in different places. Bounds are passed on as bounds.

The term solubility denotes the concentration that dissolves in the medium under given conditions. Read a high solubility as much dissolved substance. As usually defined, the AUC is concentration integrated over time. Read a high AUC as high exposure. Usually Tmax stands for the time at which the peak concentration occurs.

Data set [1] can be described thus: Stability and solubility in dosing vehicle PEG400 and Normal saline. The class given is physicochemical. To be noted: PEG400 and Normal saline in fixed composition.
Data set [2] in a line: Solubility of Paclitaxel modified drug in saline solvent systems by HPLC. To be noted: for Fold increase in solubility: versus Paclitaxel; for Solubility compared with parent drug: aqueous solubility; for solubility: thermodynamic from solid. As for the experimental part: Solubility was checked in different solvent systems.
Area under the curve for each were determined and based on that fold increase in solubility was determined.

A short description of data set [3]: Pharmacokinetics in SD rats, IV dosing (Paclitaxel and 1001).
Description: Pharmacokinetics studies were carried out to evaluate the plasma exposure of modified drug of Paclitaxel in SD rats when dosed intravenously (IV). The results were compared with exposure of Paclitaxel using the same dosing vehicle. The dosing vehicle that was used in this study was PEG400 and Normal saline in fixed composition. […] 3 mpk and 1 mpk IV dosing was done for the modified drug and 3 mpk IV for Paclitaxel parent drug. After IV dosing of the modified drug blood was collected by serial bleeding at different time points in heparinized tubes. Blood samples were centrifuged at 10,000 rpm for 5 min at 4° C. to obtain the plasma, which were aspirated into separate labeled tubes and stored at −80° C. Extraction solvent was added to plasma, was vortexed and shaken on shaker for 10 minutes, centrifuged at 10,000 rpm for 10 minutes at 4° C. Supernatant was kept for analysis.
Acetonitrile and plasma calibration curves were generated and percentage of drug recovery from plasma determined Quantitative analysis was done by liquid chromatography tandem mass spectrometer (API3000 LC-MS/MS).
The nature of data set [4]: Solubility in miliQ water by HPLC (area under the curve). It is filed as physicochemical.
Description: 1 mg/ml and 2 mg/ml solution of Mefloquine and Tadlafil respectively and equivalent weight of respective trigonelline modified compound (1011), compound (1005) of the present invention was taken in miliQ water, vortexed, centrifuged for 3 min, filtered and loaded on HPLC column (Zorbax Eclipse C18; Mobile Phase: A: 0.1% TFA, B: ACN; run time 15 min, Waters 2996 HPLC model).
Data set [5] is described as follows: Pharmacokinetics in SD rats, IV dosing (Docetaxel and 1008). The class given is in vivo. To be noted: for AUC / Cmax / Tmax / half-life: Sprague-Dawley, rat, plasma, PEG400 and Normal saline; for half-life: read-out: T1/2 elimination (converted). An excerpt: The results were compared with exposure of Docetaxel (10 mpk) using the same dosing vehicle.
Supernatant was kept for analysis.

Setting [6] is: 3 mg/Kg iv, PEG/Normal Saline (3 mpk 1001 = 2.1 mpk Paclitaxel delivered).
[7] abbreviates: concentration used for HPLC analysis 2 mg/ml.
Setting [8] is: concentration used for HPLC analysis 1 mg/ml.

For the compound `CC(=O)O[C@H]1C(=O)C2(C)C([C@H](OC(=O)c3ccccc3)[C@]3(O)C[C@H](OC(=O)[C@H](OC(=O)c4ccc[n+](C)c4)[C@H](NC(=O)c4ccccc4)c4ccccc4)C(C)=C1C3(C)C)[C@]1(OC(C)=O)CO[C@@H]1C[C@@H]2O.[I-]` (stereo partly drawn) [Compound 1001, 3-((((1R,2R)-1-benzamido-3-(((2aR,4S,6R,9S,11S,12S,12bS)-6,12b-diacetoxy-12-(benzoyloxy)-4,11-dihydroxy-4a,8,13,13-tetramethyl-5-oxo-2a,3,4,4a,5,6,9,10,11,12,12a,12b-dodecahydro-1H-7,11-methanocyclodeca[3,4]benzo[1,2-b]oxet-9-yl)oxy)-3-oxo-1-phenylpropan-2-yl)oxy)carbonyl)-1-methylpyridin-1-ium iodide], in data set [1], the “Stability and solubility in the dosing vehicle” value is “stable and soluble”. The “Fold increase in solubility” value in data set [2] (Normal Saline with 5% Dimethylacetamide) was > 10,000 ×; in data set [2] (Normal Saline with 5% Dimethylsulfoxide), > 12,000 ×; in data set [2] (Normal Saline with 9% N-Methylpyrrolidone), > 15,000 ×; in data set [2] (Normal Saline) it was above 5000 ×. Also, the “Solubility compared with parent drug” value in data set [2] is on record as “increased solubility; also recorded: better aqueous solubility”. Also, the solubility is around 1000 µg/mL in data set [2] (aqueous with cosolvent or surfactant or cyclodextrin, Solubility in 5% DMA in normal saline, 5% DMA in normal saline); above 1200 µg/mL in data set [2] (aqueous with cosolvent or surfactant or cyclodextrin, Solubility in 5% DMSO in Normal saline, 5% DMSO in Normal saline); above 1500 µg/mL in data set [2] (aqueous with cosolvent or surfactant or cyclodextrin, Solubility in 9% NP in Normal Saline, 9% NP in Normal Saline); above 500 µg/mL in data set [2] (saline or isotonic, Solubility in Normal saline, Normal saline). Besides, the “Stability in the selected solvents” value in data set [2] (selected solvent systems in normal saline) is “stable”. In addition, the Cmax was determined as 2384 nm in data set [3] (1 mg/Kg iv, PEG/Normal Saline (1 mpk 1001 = 0.71 mpk Paclitaxel delivered)) and 8620 nm in data set [3] (setting [6]). Besides, in data set [3] (iv, versus Paclitaxel), the “Fold increase in the AUC” value is recorded as “more than 10 fold”. In addition, the “Fold increase in the Cmax” value in data set [3] (iv, versus Paclitaxel) was “more than 80 folds”.
Turning to `CN1CC(=O)N2[C@H](c3ccc4c(c3)OCO4)c3c(c4ccccc4n3C(=O)c3ccc[n+](C)c3)C[C@@H]2C1=O` [Compound 1005, 3-((6R,12aR)-6-(benzo[d][1,3]dioxol-5-yl)-2-methyl-1,4-dioxo-1,2,3,4,6,7,12,12a-octahydropyrazino[1′,2′:1,6]pyrido[3,4-b]indole-7-carbonyl)-1-methylpyridin-1-ium iodide], the “Aqueous solubility over parent drug” value in data set [4] is “significant increase”. In addition, in data set [4] (2 mg/ml, versus parent Tadalafil), the “Fold increase in solubility for equiv. wt of DM using HPLC” value was 80 fold. Also, in data set [4] (setting [7]), the solubility result is listed as “Completely”.
For `CC(=O)O[C@@]12CO[C@@H]1C[C@H](O)[C@@]1(C)C(=O)[C@H](O)C3=C(C)[C@@H](OC(=O)[C@H](OC(=O)c4ccc[n+](C)c4)[C@@H](NC(=O)OC(C)(C)C)c4ccccc4)C[C@@](O)([C@@H](OC(=O)c4ccccc4)[C@H]21)C3(C)C.[I-]` [Compound 1008, 3-((((2R,3S)-1-(((2aR,4S,4aS,6R,9S,11S,12S,12aR,12bS)-12b-acetoxy-12-(benzoyloxy)-4,6,11-trihydroxy-4a,8,13,13-tetramethyl-5-oxo-2a,3,4,4a,5,6,9,10,11,12,12a,12b-dodecahydro-1H-7,11-methanocyclodeca[3,4]benzo[1,2-b]oxet-9-yl)oxy)-3-((tert-butoxycarbonyl)amino)-1-oxo-3-phenylpropan-2-yl)oxy)carbonyl)-1-methylpyridin-1-ium iodide], the “Stability and solubility in the dosing vehicle” value in data set [1] was “stable and soluble”. Moreover, the “Solubility compared with parent drug” value in data set [2] is “better aqueous solubility”. Further, the “Exposure compared to the parent drug” value in data set [5] (IV, 1008 3 mpk versus Docetaxel 10 mpk) was “significantly higher exposure”. Moreover, in data set [5] (IV, versus Docetaxel), the “Pharmacokinetics compared to the original compound” value is on record as “enhanced pharmacokinetics”. In data set [5] (3 mg/kg, 3 mpk IV), the area under the curve (AUC) was determined as 1.04 µM·h, the Cmax is 6.92 µM, the Tmax was determined as 4.8 min and the half-life is 107 min.
`C[n+]1cccc(C(=O)N2CCCC[C@@H]2[C@@H](O)c2cc(C(F)(F)F)nc3c(C(F)(F)F)cccc23)c1` [Compound 1011, 3-((R)-2((S)-(2,8-bis(trifluoromethyl)quinolin-4 yl)(hydroxy)methyl)piperidine-1-carbonyl)-1-methylpyridin-1-ium]: the “Aqueous solubility over parent drug” value in data set [4] is reported as “significant increase”. The “Fold increase in solubility for equiv. wt of DM using HPLC” value in data set [4] (1 mg/ml, versus parent Mefloquine) is reported as 2.4 fold. The solubility entry in data set [4] (setting [8]) is reported as “Completely”.
With `CC(=O)O[C@@]12CO[C@@H]1C[C@H](O)[C@@]1(C)C(=O)[C@H](O)C3=C(C)[C@@H](OC(=O)[C@H](O)[C@@H](NC(=O)OC(C)(C)C)c4ccccc4)C[C@@](O)([C@@H](OC(=O)c4ccccc4)[C@H]21)C3(C)C` [Docetaxel, reference compound], in data set [5] (10 mg/kg, 10 mpk IV), the AUC came to 0.897 µM·h, the Cmax was 0.495 µM, the Tmax was found to be 4.8 min and the half-life was 124 min.
As to `OC(c1cc(C(F)(F)F)nc2c(C(F)(F)F)cccc12)C1CCCCN1` (stereo not shown) [Mefloquine, reference compound], in data set [4] (setting [8]), the solubility entry is reported as “Poor”.
`CC(=O)O[C@H]1C(=O)[C@@]2(C)[C@H]([C@H](OC(=O)c3ccccc3)[C@]3(O)C[C@H](OC(=O)[C@H](O)[C@@H](NC(=O)c4ccccc4)c4ccccc4)C(C)=C1C3(C)C)[C@]1(OC(C)=O)CO[C@@H]1C[C@@H]2O` [Paclitaxel, reference compound]: the “Solubility in 5% DMA in normal saline” value in data set [2] (5% DMA in normal saline) is given as “Not soluble”. In addition, in data set [2] (5% DMSO in Normal saline), the “Solubility in 5% DMSO in Normal saline” value is “Not soluble”. The “Solubility in 9% NP in Normal Saline” value in data set [2] (9% NP in Normal Saline) is reported as “Not soluble”. This compound also yielded a solubility in data set [2] (normal saline, saline or isotonic, Solubility in Normal saline) of 0.1 µg/mL (≈ 0.117 µM). Also, the Cmax in data set [3] (setting [6]) is reported as 104 nm.
With `CN1CC(=O)N2[C@H](c3ccc4c(c3)OCO4)c3[nH]c4ccccc4c3C[C@@H]2C1=O` [Tadalafil, reference compound], the solubility entry in data set [4] (setting [7]) is “Very poor”.
